Results published in patent publication US20230414826A1, “FIBRIN HYDROGELS” (Mayo Foundation for Medical Education and Research, priority 2020, published 2023).
Values after ≈ are worked out from the molar mass of the structure shown.

Tests used:
[1] = biological target: T1, fibrin gels (10 mg/mL fibrinogen, 1 U/mL thrombin) (Homo sapiens, UniProt P02671+P02675+P02679); test: Rheometry gelation time, lower fibrinogen concentration fibrin gels; assay type: biochemical; details: n=3
T1 construct: purchased Ethicon (Evicel)
T1 sequence (P02671 20-644 isoform P02671-2 limits assumed): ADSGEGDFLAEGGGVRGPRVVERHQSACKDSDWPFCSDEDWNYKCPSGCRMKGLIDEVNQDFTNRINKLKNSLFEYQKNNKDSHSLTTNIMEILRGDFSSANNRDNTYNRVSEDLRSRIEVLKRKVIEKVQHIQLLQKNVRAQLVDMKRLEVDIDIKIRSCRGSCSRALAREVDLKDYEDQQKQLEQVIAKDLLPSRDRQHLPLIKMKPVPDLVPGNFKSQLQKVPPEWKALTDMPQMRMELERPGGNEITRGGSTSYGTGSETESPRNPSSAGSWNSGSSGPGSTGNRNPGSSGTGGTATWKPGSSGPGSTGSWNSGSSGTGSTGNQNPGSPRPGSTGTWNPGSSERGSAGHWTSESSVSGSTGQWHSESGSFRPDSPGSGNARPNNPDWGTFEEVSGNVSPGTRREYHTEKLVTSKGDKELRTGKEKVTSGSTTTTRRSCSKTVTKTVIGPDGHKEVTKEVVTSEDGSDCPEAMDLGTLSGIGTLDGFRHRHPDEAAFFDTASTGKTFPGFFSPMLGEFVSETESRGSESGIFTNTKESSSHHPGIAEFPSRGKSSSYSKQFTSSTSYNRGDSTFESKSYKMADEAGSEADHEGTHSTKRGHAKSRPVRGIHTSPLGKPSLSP
T1 sequence (P02675 45-491 limits assumed): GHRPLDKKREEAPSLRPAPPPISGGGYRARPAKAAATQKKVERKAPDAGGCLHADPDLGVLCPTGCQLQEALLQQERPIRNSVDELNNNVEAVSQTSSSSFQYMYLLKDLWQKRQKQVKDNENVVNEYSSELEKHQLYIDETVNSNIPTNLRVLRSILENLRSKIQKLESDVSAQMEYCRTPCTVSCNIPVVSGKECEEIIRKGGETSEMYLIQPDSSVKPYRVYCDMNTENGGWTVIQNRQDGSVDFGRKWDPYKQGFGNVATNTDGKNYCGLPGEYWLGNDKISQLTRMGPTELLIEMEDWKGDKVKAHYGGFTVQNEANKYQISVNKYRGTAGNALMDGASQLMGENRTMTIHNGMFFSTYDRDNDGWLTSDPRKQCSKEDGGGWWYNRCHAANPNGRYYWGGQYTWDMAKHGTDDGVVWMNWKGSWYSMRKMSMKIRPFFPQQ
T1 sequence (P02679 27-437 isoform P02679-2 limits assumed): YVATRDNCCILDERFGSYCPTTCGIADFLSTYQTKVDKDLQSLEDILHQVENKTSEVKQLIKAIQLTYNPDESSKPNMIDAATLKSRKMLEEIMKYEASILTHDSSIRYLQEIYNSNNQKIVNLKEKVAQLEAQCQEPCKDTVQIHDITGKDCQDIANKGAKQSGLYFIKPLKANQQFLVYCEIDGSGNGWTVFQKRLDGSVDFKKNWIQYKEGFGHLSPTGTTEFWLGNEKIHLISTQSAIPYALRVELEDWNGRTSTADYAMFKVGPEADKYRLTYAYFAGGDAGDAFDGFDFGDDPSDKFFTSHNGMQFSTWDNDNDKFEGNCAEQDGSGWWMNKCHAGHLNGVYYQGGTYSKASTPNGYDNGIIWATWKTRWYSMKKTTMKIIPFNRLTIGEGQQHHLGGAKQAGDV
Method: The viscoelastic mechanical properties of fibrin gels were characterized using oscillatory shear rheology on a Discovery Hybrid Rheometer 2 (TA Instruments; New Castle, DE) with a 20 mm cone-and-plate geometry at a 1° angle and a 20 mm stage. Inertia, friction, and rotational mapping calibrations were performed prior to each experiment. A Peltier temperature-controlled stage maintained 37° C. and a solvent trap was used to control evaporation during experiments lasting longer than 20 minutes. Gels were prepared by mixing specified concentrations of fibrinogen, dye, and thrombin on the stage. Immediately after combining, the geometry head was lowered to 500 μm (˜1-3 seconds) before beginning the first experiment. Gelation kinetics were monitored in time sweeps at 1% strain and 10 rad/s angular frequency. Strain sweeps were measured from 0.01-1000% strain at 1 Hz frequency. A frequency sweeps measured from 0.01-3 Hz at 1% strain was used to confirmed fibrin independence of frequency.
Rheometry was performed for samples with no dye (PBS alone), TB, EB, and PEG. Stock fibrinogen (Evicel) was used as is or diluted with PBS. Thrombin was diluted in PBS, with or without the various dyes. To determine the gelation time, a final mixture concentration of 10 mg/mL fibrinogen, 1 U/mL thrombin, and 0.01% w/v dye concentration was used. A time sweep was performed up to 20 minutes, after which some minor effects of evaporation in non-gelled samples introduced noise and could not reliably detect the storage modulus (g′). The gelation time was defined as the point at which the g′ exceeded the g″ (viscous modulus) and continued to increase over time.
Rheometry was used to confirm findings obtained using the coagulation analyzer and test conditions at higher fibrinogen concentrations used in high mechanical strength scaffolds. While clotting time and gelation time are similar properties, the terms are utilized discretely due to the differences in the respective assays. However, in controls for gels at higher fibrinogen concentrations, thrombin concentrations were decrease by orders of magnitude to assess initial gel time based on the sensitivity of the rheometer. In order to consistently detect a gelation time, when the g′ value (shear modulus) becomes greater than the g″ value (viscous modulus), conditions were set to […] fibrinogen and 1 U/mL thrombin final concentration using tissue glue for all samples. Sample conditions tested using rheometry included use of PBS (control), TB, EB, or PEG solution to dilute the thrombin so that the final gel concentration of the dye was 0.01% w/v. […]
Initially, g′ and g″ values were on the same scale (<2 Pa). […] Due to this, the gelation time was calculated as when the g′ values exceeded the g″ value and continued to grow over time (arrow, FIG. 5A). […]

[2] = Solubility point in citrate buffer; assay type: physicochemical; details: aqueous buffer; 1× citrate buffer (20 mM sodium citrate, 100 mM sodium chloride pH 7.4)

Compound | gelation time (g′ exceeds g″) ([1]; 0.01% w/v dye) [s] | gelation time (g′ exceeds g″) ([1]; 0.005% w/v dye) [s] | gelation time (g′ exceeds g″) ([1]; 0.12% w/v dye) [s] | solubility [2] [mM]
Cc1cc(-c2ccc(/N=N/c3ccc4c(S(=O)(=O)O)cc(S(=O)(=O)O)c(N)c4c3O)c(C)c2)ccc1/N=N/c1ccc2c(S(=O)(=O)O)cc(S(=O)(=O)O)c(N)c2c1O [EB, Evans Blue] | 232.1 ± 19.3 | – | – | –
Cc1cc(-c2ccc(/N=N/c3c(S(=O)(=O)O)cc4cc(S(=O)(=O)O)cc(N)c4c3O)c(C)c2)ccc1/N=N/c1c(S(=O)(=O)O)cc2cc(S(=O)(=O)O)cc(N)c2c1O [TB, Trypan Blue] | 168.7 ± 19.9 | 106.4 ± 22.5 | 206.7 ± 31.3 | 4.58 (≈ 4000 µg/mL)
